± gives the standard deviation of the averaged measurements.
Experiment: TIMS collisional cross section (CCS, N2) of the lipid ion; higher = larger ion cross section
Details: ionization mode: positive, one isomer drawn
Description: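 Lipid extracts of human plasma (NIST SRM 1950), mouse liver and HeLa cells were separated by nanoflow C18 LC (30 min gradient, 60 °C) and analysed by TIMS-PASEF on a timsTOF Pro in positive ion mode. Ion mobility was calibrated with the Agilent tuning mix and converted to collisional cross sections (Mason–Schamp) in N2 drift gas. Lipids were identified by MS/MS (SimLipid) and manual curation. SMILES are LIPID MAPS representative structures for the annotated lipid.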

Compound	TIMS collisional cross section (sample type: Liver)	TIMS collisional cross section (sample type: plasma)	TIMS collisional cross section (sample type: HeLa)
CCCCCC/C=C\CCCCCCCC(=O)OC[C@H](CO)OC(=O)CCCCCCC/C=C\CCCCCCCC [DG 16:1_18:1_0:0] (ion (formula + adduct): [C37H68O5+NH4] 1+)	260 Å²	258.75 ± 1.2 Å²	–
CCCCC/C=C\C/C=C\CCCCCCCC(=O)O[C@@H](CO)COC(=O)CCCCCCC/C=C\CCCCCC [DG 16:1_18:2_0:0] (ion (formula + adduct): [C37H66O5+NH4] 1+)	253.1 Å²	253.8 Å²	–
CCCCCCCC/C=C\CCCCCCCC(=O)O[C@@H](CO)COC(=O)CCCCCCCCCCCCCCCC [DG 17:0_18:1_0:0] (ion (formula + adduct): [C38H72O5+NH4] 1+)	266 Å²	–	265.7 Å²
CCCCC/C=C\C/C=C\CCCCCCCC(=O)O[C@@H](CO)COC(=O)CCCCCCCCCCCCCCCC [DG 17:0_18:2_0:0] (ion (formula + adduct): [C38H70O5+NH4] 1+)	262.8 Å²	–	–
CCCCCCCCCCCCCCCCCC(=O)OC[C@H](CO)OC(=O)CCCCCCCCCCCCCCC [DG 18:0_16:0_0:0] (ion (formula + adduct): [C37H72O5+NH4] 1+)	265.6 Å²	265.6 Å²	–
CCCCCCCCCCCCCCCCCC(=O)OCC(CO)OC(=O)CCCCCCCCCCCCCCCCC (stereo not given) [DG 18:0_18:0_0:0] (ion (formula + adduct): [C39H76O5+NH4] 1+)	–	273.4 Å²	272.2 Å²
CCCCCCCC/C=C\CCCCCCCC(=O)O[C@@H](CO)COC(=O)CCCCCCCCCCCCCCCCC [DG 18:0_18:1_0:0] (ion (formula + adduct): [C39H74O5+NH4] 1+)	269.6 Å²	–	–
CCCCC/C=C\C/C=C\C/C=C\CCCCCCC(=O)O[C@@H](CO)COC(=O)CCCCCCCCCCCCCCCCC [DG 18:0_20:3_0:0] (ion (formula + adduct): [C41H74O5+NH4] 1+)	271.8 Å²	–	–
CCCCC/C=C\C/C=C\C/C=C\C/C=C\CCCC(=O)O[C@@H](CO)COC(=O)CCCCCCCCCCCCCCCCC [DG 18:0_20:4_0:0] (ion (formula + adduct): [C41H72O5+NH4] 1+)	270.8 Å²	–	270.8 Å²
CCCCCCCCCCCCCCCCCCCCCC(=O)O[C@@H](CO)COC(=O)CCCCCCCCCCCCCCCCC [DG 18:0_22:0_0:0] (ion (formula + adduct): [C43H84O5+NH4] 1+)	–	285.7 Å²	–
CCCCCC/C=C/CCCCCCCCCC(=O)OC[C@H](CO)OC(=O)CCCCCCCCCCCCCCC [DG 18:1_16:0_0:0] (ion (formula + adduct): [C37H70O5+H] 1+)	–	–	257.7 Å²
CCCCCC/C=C/CCCCCCCCCC(=O)OC[C@H](CO)OC(=O)CCCCCCCCCCCCCCC [DG 18:1_16:0_0:0] (ion (formula + adduct): [C37H70O5+NH4] 1+)	262.85 ± 0.21 Å²	263.1 Å²	262.87 ± 0.64 Å²
CCCCCCCC/C=C\CCCCCCCC(=O)OC[C@H](CO)OC(=O)CCCCCCC/C=C\CCCCCCCC [DG 18:1_18:1_0:0] (ion (formula + adduct): [C39H72O5+NH4] 1+)	265.5 Å²	265.9 ± 0.71 Å²	265.2 Å²
CCCCC/C=C\C/C=C\CCCCCCCC(=O)O[C@@H](CO)COC(=O)CCCCCCC/C=C\CCCCCCCC [DG 18:1_18:2_0:0] (ion (formula + adduct): [C39H70O5+NH4] 1+)	261.3 Å²	261.2 Å²	261.1 Å²
CC/C=C\C/C=C\C/C=C\CCCCCCCC(=O)O[C@@H](CO)COC(=O)CCCCCCC/C=C\CCCCCCCC [DG 18:1_18:3_0:0] (ion (formula + adduct): [C39H68O5+NH4] 1+)	–	258.8 Å²	258.6 Å²
CCCCCCCC/C=C\CCCCCCCCCC(=O)O[C@@H](CO)COC(=O)CCCCCCC/C=C\CCCCCCCC [DG 18:1_20:1_0:0] (ion (formula + adduct): [C41H76O5+NH4] 1+)	271.8 Å²	–	–
CCCCC/C=C\C/C=C\CCCCCCCCCC(=O)O[C@@H](CO)COC(=O)CCCCCCC/C=C\CCCCCCCC [DG 18:1_20:2_0:0] (ion (formula + adduct): [C41H74O5+NH4] 1+)	–	268.2 Å²	–
CCCCC/C=C\C/C=C\C/C=C\CCCCCCC(=O)O[C@@H](CO)COC(=O)CCCCCCC/C=C\CCCCCCCC [DG 18:1_20:3_0:0] (ion (formula + adduct): [C41H72O5+NH4] 1+)	267 Å²	–	266.8 Å²
CCCCC/C=C\C/C=C\C/C=C\C/C=C\CCCC(=O)O[C@@H](CO)COC(=O)CCCCCCC/C=C\CCCCCCCC [DG 18:1_20:4_0:0] (ion (formula + adduct): [C41H70O5+NH4] 1+)	266 Å²	265.8 Å²	–

Compound	TIMS collisional cross section (sample type: Liver)	TIMS collisional cross section (sample type: plasma)	TIMS collisional cross section (sample type: HeLa)
CC/C=C\C/C=C\C/C=C\C/C=C\C/C=C\CCCC(=O)O[C@@H](CO)COC(=O)CCCCCCC/C=C\CCCCCCCC [DG 18:1_20:5_0:0] (ion (formula + adduct): [C41H68O5+H] 1+)	–	271.1 Å²	–
CC/C=C\C/C=C\C/C=C\C/C=C\C/C=C\CCCC(=O)O[C@@H](CO)COC(=O)CCCCCCC/C=C\CCCCCCCC [DG 18:1_20:5_0:0] (ion (formula + adduct): [C41H68O5+NH4] 1+)	–	–	263.8 Å²
CCCCCCCC/C=C\CCCCCCCCCCCC(=O)O[C@@H](CO)COC(=O)CCCCCCC/C=C\CCCCCCCC [DG 18:1_22:1_0:0] (ion (formula + adduct): [C43H80O5+NH4] 1+)	278.5 Å²	–	–
CCCCC/C=C\C/C=C\C/C=C\C/C=C\CCCCCC(=O)O[C@@H](CO)COC(=O)CCCCCCC/C=C\CCCCCCCC [DG 18:1_22:4_0:0] (ion (formula + adduct): [C43H74O5+NH4] 1+)	–	273 Å²	–
CC/C=C\C/C=C\C/C=C\C/C=C\C/C=C\CCCCCC(=O)O[C@@H](CO)COC(=O)CCCCCCC/C=C\CCCCCCCC [DG 18:1_22:5_0:0] (ion (formula + adduct): [C43H72O5+NH4] 1+)	272.3 Å²	–	–
CC/C=C\C/C=C\C/C=C\C/C=C\C/C=C\C/C=C\CCC(=O)O[C@@H](CO)COC(=O)CCCCCCC/C=C\CCCCCCCC [DG 18:1_22:6_0:0] (ion (formula + adduct): [C43H70O5+NH4] 1+)	269.9 Å²	–	270 Å²
CCCCC/C=C\C/C=C\CCCCCCCC(=O)OC[C@H](CO)OC(=O)CCCCCCC/C=C\C/C=C\CCCCC [DG 18:2_18:2_0:0] (ion (formula + adduct): [C39H68O5+NH4] 1+)	256.6 Å²	257.1 Å²	–
CC/C=C\C/C=C\C/C=C\CCCCCCCC(=O)O[C@@H](CO)COC(=O)CCCCCCC/C=C\C/C=C\CCCCC [DG 18:2_18:3_0:0] (ion (formula + adduct): [C39H66O5+NH4] 1+)	254.2 Å²	–	–
CCCCC/C=C\C/C=C\CCCCCCCC(=O)OC[C@H](CO)OC(=O)CCCCCCCCC/C=C\CCCCCCCC [DG 18:2_20:1_0:0] (ion (formula + adduct): [C41H74O5+NH4] 1+)	268.2 Å²	–	–
CCCCC/C=C\C/C=C\C/C=C\C/C=C\CCCC(=O)O[C@@H](CO)COC(=O)CCCCCCC/C=C\C/C=C\CCCCC [DG 18:2_20:4_0:0] (ion (formula + adduct): [C41H68O5+NH4] 1+)	261.1 Å²	261.6 Å²	–
CCCCC/C=C\C/C=C\CCCCCCCC(=O)OC[C@H](CO)OC(=O)CCCCCCCCCCCCCCCCCCCCC [DG 18:2_22:0_0:0] (ion (formula + adduct): [C43H80O5+NH4] 1+)	279.2 Å²	–	–
CCCCC/C=C\C/C=C\CCCCCCCC(=O)OC[C@H](CO)OC(=O)CCCCCCCCCCC/C=C\CCCCCCCC [DG 18:2_22:1_0:0] (ion (formula + adduct): [C43H78O5+NH4] 1+)	275.5 Å²	–	–
CCCCC/C=C\C/C=C\CCCCCCCCCCCC(=O)O[C@@H](CO)COC(=O)CCCCCCC/C=C\C/C=C\CCCCC [DG 18:2_22:2_0:0] (ion (formula + adduct): [C43H76O5+NH4] 1+)	272.5 Å²	–	–
CCCCC/C=C\C/C=C\C/C=C\C/C=C\CCCCCC(=O)O[C@@H](CO)COC(=O)CCCCCCC/C=C\C/C=C\CCCCC [DG 18:2_22:4_0:0] (ion (formula + adduct): [C43H72O5+NH4] 1+)	270.8 Å²	–	–
CC/C=C\C/C=C\C/C=C\C/C=C\C/C=C\CCCCCC(=O)O[C@@H](CO)COC(=O)CCCCCCC/C=C\C/C=C\CCCCC [DG 18:2_22:5_0:0] (ion (formula + adduct): [C43H70O5+NH4] 1+)	266.9 Å²	–	–
CCCCC/C=C\C/C=C\C/C=C\C/C=C\CCCC(=O)O[C@@H](CO)COC(=O)CCCCCCCCCCCCCCCCCC [DG 19:0_20:4_0:0] (ion (formula + adduct): [C42H74O5+NH4] 1+)	274.3 Å²	–	–
CCCCCC/C=C\CCCCCCCC(=O)O[C@@H](CO)COC(=O)CCCCCCC/C=C\CCCCCCCCC [DG 19:1_16:1_0:0] (ion (formula + adduct): [C38H70O5+NH4] 1+)	–	–	261.1 Å²
CCCCCCCC/C=C\CCCCCCCC(=O)O[C@@H](CO)COC(=O)CCCCCCC/C=C\CCCCCCCCC [DG 19:1_18:1_0:0] (ion (formula + adduct): [C40H74O5+NH4] 1+)	–	–	268.3 Å²

Reference: the supplement of paper PMC6965134
